The results in this text go back to patent US20220397564A1, “ENGINEERING SPATIAL-ORGANIZED CARDIAC ORGANOIDS FOR DEVELOPMENTAL TOXICITY TESTING” (priority 2021, published 2022).

Read-outs that look alike come from different tables or passages of the source.

The test system of one series is zebrafish embryos. The conditions noted are these: for proportion of embryos with normal (D-looped) heart looping: across / at higher concentrations; for embryos expressing the GFP transgene: Tg(my17:GFP).
The test system of series [1] is hiPSC-based cardiac organoids. The conditions noted are these: for concentration with no contractile functions (stopped beating) / concentration at which cardiac organoids/tissue failed to differentiate (cardiac differentiation abolished) / organoid formation: human; for organoid formation: 100 μM.
For series [2], the system named is cardiac organoids (cTnT positive cells). Briefly: flow cytometry of cardiac differentiation efficiency (cTnT) of drug-treated organoids. In kind it is cell-based, human. To be noted: with increasing treatment concentration. As to the method: Cardiac organoids were dissociated using 0.25% Trypsin for 10-15 minutes. Cells were collected, centrifuged and washed with PBS. Cells were fixed and permeabilized with a mixture of 4% (vol/vol) paraformaldehyde and 0.2% (vol/vol) TritonX solution for 15 minutes. Cells were incubated with primary antibody cardiac troponin T (Thermofisher cat. no. MA5-12960) in a 1:250 dilution for 1 hour in PBS, and then incubated with AlexaFluor 546 secondary fluorophore for an additional hour. The cell suspension was washed, centrifuged and filtered through 35 μm mesh cell strainer. Flow cytometry was performed on the BDAccuriC6 at Flow Cytometry Core at Syracuse University.
Concentrations were chosen after evaluation of blood plasma concentrations reported for each drug from the FDA drug information database (accessdata.FDA.gov). Concentrations were chosen to be at or approximated by blood plasma concentrations, while accounting for drug solubility in water or DMSO, while also supplying a large range in order to detect potential toxicity. Drugs were diluted in the appropriate culture media at three concentrations each increasing by a factor of 10 with respective controls. […] Samples were terminated on Day 20 for motion tracking analysis and for fluorescence/confocal imaging to assess the developmental toxicity of specific drugs based on the organoid morphology and contractile physiology.
On the technique in general: Flow cytometry measures light scatter and fluorescence of single cells or particles in a stream.

The test system of series [3] is hiPSC-based cardiac organoids. Briefly: cardiac developmental toxicity assay on hiPSC-derived cardiac organoids (differentiation, contractile behavior, 3D morphology).

As to `O=C1NC(=O)C(c2ccccc2)(c2ccccc2)N1` [Phenytoin], in the series with zebrafish embryos (zebrafish, in vivo), the “developmental toxicity (cardiac looping)” value is “mild embryotoxic effects” and the “developmental toxicity on zebrafish embryonic heart development (cardiac looping)” value was “mild developmental toxic effect”. Moreover, in series [1], the FWHM result is given as “smaller”; the height entry is “smaller”; the “organoid formation / 3D organoid morphology” value is “smaller cardiac organoids than controls, but still maintained structural integrity”; the “concentration with no contractile functions (stopped beating)” value came to 100 µM.
In the case of `CO[C@H]1/C=C/O[C@@]2(C)Oc3c(C)c(O)c4c(O)c(c(/C=N/N5CCN(C)CC5)c(O)c4c3C2=O)NC(=O)/C(C)=C\C=C\[C@H](C)[C@H](O)[C@@H](C)[C@@H](O)[C@@H](C)[C@H](OC(C)=O)[C@@H]1C` [Rifampicin], in the series on zebrafish embryos (zebrafish, in vivo), the “developmental toxicity (cardiac looping)” value is reported as “mild embryotoxic effects” and the “developmental toxicity on zebrafish embryonic heart development (cardiac looping)” value is “mild developmental toxic effect”. Moreover, in series [1], the FWHM result is “toxicity”, the beat rate result is recorded as “toxicity”, the contraction velocity entry is recorded as “toxicity” and the height result is listed as “toxicity”. Also, in series [1], the “concentration at which cardiac organoids/tissue failed to differentiate (cardiac differentiation abolished)” value was 100 µM and the organoid formation result is listed as “severe developmental toxicity at a high concentration (100 μM) with no organoid formation”.
Turning to `C[C@H]1c2cccc(O)c2C(=O)C2=C(O)[C@]3(O)C(=O)C(C(N)=O)=C(O)[C@@H](N(C)C)[C@@H]3[C@@H](O)[C@@H]21` [Doxycycline], in the series on zebrafish embryos (zebrafish, in vivo), the “developmental toxicity (cardiac looping)” value was “severe developmental toxic effects” and the “developmental toxicity on zebrafish embryonic heart development (cardiac looping)” value was “moderate toxicity”. Further, in series [1], the FWHM result is recorded as “Significant toxicity”, the beat duration result was “Significant toxicity”, the beat rate result is on record as “Significant toxicity” and the contraction velocity entry is “Significant toxicity”. In series [1], the height entry is listed as “Significant toxicity”, the “concentration at which cardiac organoids/tissue failed to differentiate (cardiac differentiation abolished)” value came to 100 µM and the organoid formation result is “failed to create 3D organoids”.
Turning to `CC1(C)S[C@@H]2[C@H](NC(=O)[C@H](N)c3ccc(O)cc3)C(=O)N2[C@H]1C(=O)O` [Amoxicillin], in series [1], the FWHM result is listed as “smaller”, the beat duration entry is listed as “increased”, the beat rate result is “decreased” and the height result is given as “smaller”.
Take `CN(C)CCOC(C)(c1ccccc1)c1ccccn1` (stereo not shown) [Doxylamine Succinate]: the “percentage of cells expressing cTnT” value in series [2] is listed as “did not affect”. Moreover, the “proportion of embryos with normal (D-looped) heart looping” value with zebrafish embryos (48 hpf) is listed as “considerable proportion”. In series [1], the beat rate result was “slower”, the “effect on contractile functions (overall)” value is recorded as “prominent effects” and the “organoid formation / 3D organoid morphology” value is reported as “no drug effects”.
As to `O=C1CCC(N2C(=O)c3ccccc3C2=O)C(=O)N1` (stereo not shown) [Thalidomide], the “percentage of cells expressing cTnT” value in series [2] was “considerable reduction”. Moreover, the “proportion of embryos with normal (D-looped) heart looping” value in the series with zebrafish embryos (48 hpf) was “did not notably decrease”. Further, in the series with zebrafish embryos (zebrafish, in vivo), the “developmental toxicity (cardiac looping)” value is “very mild toxicity level” and the “developmental toxicity on zebrafish embryonic heart development (cardiac looping)” value was “not as significant as what was observed in the organoid model”. In addition, in series [1], the area ratio result was “decrease”, the “area ratio of cardiac muscle coverage” value was “less cardiac tissue coverage”, the beat rate result is given as “high variability” and the “organoid formation / 3D organoid morphology” value was “abnormal cardiac organoids”.
On to `CC1=C(/C=C/C(C)=C/C=C/C(C)=C/C(=O)O)C(C)(C)CCC1` [Tretinoin, all-trans-retinoic acid], for which the “embryos expressing the GFP transgene” value with zebrafish embryos (zebrafish, in vivo, 48 hpf) amounted to 0%. Besides, in the series on zebrafish embryos (zebrafish, in vivo), the “developmental toxicity (cardiac looping)” value was “severe developmental toxic effects” and the “developmental toxicity on zebrafish embryonic heart development (cardiac looping)” value is “severe defects”. In addition, in series [1], the “effect on cardiac differentiation” value is listed as “abolished all cardiac differentiation”, the “concentration at which cardiac organoids/tissue failed to differentiate (cardiac differentiation abolished)” value came to 10 µM and the “concentration with no contractile functions (stopped beating)” value came to 10 µM.
For `CC1=C(/C=C/C(C)=C/C=C/C(C)=C\C(=O)O)C(C)(C)CCC1` [Isotretinoin, 13-cis-retinoic acid], in the series on zebrafish embryos (zebrafish, in vivo, 48 hpf), the “embryos expressing the GFP transgene” value was 0%. Further, in the series with zebrafish embryos (zebrafish, in vivo), the “developmental toxicity (cardiac looping)” value is listed as “severe developmental toxic effects” and the “developmental toxicity on zebrafish embryonic heart development (cardiac looping)” value was “severe defects”. Moreover, in series [1], the “organoid formation / 3D organoid morphology” value was “large organoids” and the “concentration at which cardiac organoids/tissue failed to differentiate (cardiac differentiation abolished)” value is 1 µM.
As to `O=C([O-])[O-].[Li+].[Li+]` [Lithium Carbonate], the “developmental toxicity (cardiac looping)” value with zebrafish embryos (48 hpf, all concentrations) is on record as “severe developmental toxic effects”. The “developmental toxicity on zebrafish embryonic heart development (cardiac looping)” value with zebrafish embryos (48 hpf, concentration not specified) was “moderate toxicity”. In addition, the “organoid formation / 3D organoid morphology” value in series [3] (all tested concentrations or not specified, vs controls) was “mild toxicity”. In addition, the “effect on cardiac differentiation” value in series [3] (concentration not specified) was “slight reduction”. For the same compound, the “effect on contractile functions (overall)” value is “did not affect” in series [3] (concentration not specified, listed as lithium) and “no significant toxicity effects” in series [3] (concentration not specified, listed as lithium carbonate). The FWHM result in series [3] (high / higher concentrations (thalidomide in b100: 100 μM)) was “moderate toxicity”.
